Data on five compounds can be found in patent EP2147919A1, “Heterocyclic substituted amides, method for their manufacture and their use as herbicides” (Bayer CropScience Aktiengesellschaft, priority 2008, dated 2010).

The subject of one series is ALOMY. Description: Herbicidal action pre-emergence (greenhouse pot test, visual rating). The format is in vivo, Alopecurus myosuroides. Conditions: Vorauflauf, 1280 g/ha, visual rating after 3 weeks vs untreated controls. An excerpt:
(§1) Samen von mono- bzw. dikotylen Unkraut- bzw. Kulturpflanzen werden in Holzfasertöpfen in sandiger Lehmerde ausgelegt und mit Erde abgedeckt. Die in Form von benetzbaren Pulvern (WP) oder als Emulsionskonzentrate (EC) formulierten erfindungsgemäßen Verbindungen werden dann als wäßrige Suspension bzw. Emulsion mit einer Wasseraufwandmenge von umgerechnet 600 bis 800 l/ha unter Zusatz von 0,2% Netzmittel auf die Oberfläche der Abdeckerde appliziert.
(§2) Nach der Behandlung werden die Töpfe im Gewächshaus aufgestellt und unter guten Wachstumsbedingungen für die Testpflanzen gehalten. Die visuelle Bonitur der Schäden an den Versuchspflanzen erfolgt nach einer Versuchszeit von 3 Wochen im Vergleich zu unbehandelten Kontrollen (herbizide Wirkung in Prozent (%): 100% Wirkung = Pflanzen sind abgestorben, 0 % Wirkung = wie Kontrollpflanzen).

Another series has as its system PHBPU. Nature of the series: Herbicidal action post-emergence (greenhouse pot test, visual rating). The note with it: Nachauflauf, 1280 g/ha, visual rating after ca. 3 weeks vs untreated controls. The format is in vivo, Pharbitis purpurea. The source says: (§3) Samen von mono- bzw. dikotylen Unkraut- bzw. Kulturpflanzen werden in Holzfasertöpfen in sandigem Lehmboden ausgelegt, mit Erde abgedeckt und im Gewächshaus unter guten Wachstumsbedingungen angezogen. 2 bis 3 Wochen nach der Aussaat werden die Versuchspflanzen im Einblattstadium behandelt. Die in Form von benetzbaren Pulvern (WP) oder als Emulsionskonzentrate (EC) formulierten erfindungsgemäßen Verbindungen werden dann als wäßrige Suspension bzw. Emulsion mit einer Wasseraufwandmenge von umgerechnet 600 bis 800 l/ha unter Zusatz von 0,2% Netzmittel auf die grünen Pflanzenteile gesprüht. Nach ca. 3 Wochen Standzeit der Versuchspflanzen im Gewächshaus unter optimalen Wachstumsbedingungen wird die Wirkung der Präparate visuell im Vergleich zu unbehandelten Kontrollen bonitiert (herbizide Wirkung in Prozent (%): 100% Wirkung = Pflanzen sind abgestorben, 0 % Wirkung = wie Kontrollpflanzen).

The test system of series [1] is ABUTH. Nature of the series: Herbicidal action pre-emergence (greenhouse pot test, visual rating). The format is in vivo, Abutilon theophrasti. The note with it: Vorauflauf, 1280 g/ha, visual rating after 3 weeks vs untreated controls.
Source text: as §1, §2

Series [2] relates to MATIN. The series is described as above. It counts as in vivo, Matricaria inodora. Conditions: Vorauflauf, 1280 g/ha, visual rating after 3 weeks vs untreated controls.
Source text: as §1, §2

Series [3] deals with STEME. Description: Herbicidal action post-emergence (greenhouse pot test, visual rating). It counts as in vivo, Stellaria media. The note with it: Nachauflauf, 1280 g/ha, visual rating after ca. 3 weeks vs untreated controls.
Source text: as §3

Series [4] relates to AMARE. The series is described as above. It counts as in vivo, Amaranthus retroflexus. Conditions: Nachauflauf, 1280 g/ha, visual rating after ca. 3 weeks vs untreated controls.
Source text: as §3

Series [5] concerns VIOTR. Described as above. The note with it: Nachauflauf, 1280 g/ha, visual rating after ca. 3 weeks vs untreated controls. It counts as in vivo, Viola tricolor.
Source text: as §3

Series [6] has as its system ABUTH. Described as above. It counts as in vivo, Abutilon theophrasti. The note with it: Nachauflauf, 1280 g/ha, visual rating after ca. 3 weeks vs untreated controls.
Source text: as §3

Series [7] relates to VERPE. Described as above. It counts as in vivo, Veronica persica. Conditions: Nachauflauf, 1280 g/ha, visual rating after ca. 3 weeks vs untreated controls.
Source text: as §3

In series [8] the test system is VERPE. Description: Herbicidal action pre-emergence (greenhouse pot test, visual rating). The format is in vivo, Veronica persica. The note with it: Vorauflauf, 1280 g/ha, visual rating after 3 weeks vs untreated controls.
Source text: as §1, §2

Series [9] deals with AMARE. The description is as above. It counts as in vivo, Amaranthus retroflexus. The note with it: Vorauflauf, 1280 g/ha, visual rating after 3 weeks vs untreated controls.
Source text: as §1, §2

The nature of the next series: Log P. The format is physicochemical.
The test system of series [10] is STEME. Description: Herbicidal action pre-emergence (greenhouse pot test, visual rating). It counts as in vivo, Stellaria media. Conditions: Vorauflauf, 1280 g/ha, visual rating after 3 weeks vs untreated controls.
Source text: as §1, §2

For series [11], the system named is MATIN. Nature of the series: Herbicidal action post-emergence (greenhouse pot test, visual rating). Conditions: Nachauflauf, 1280 g/ha, visual rating after ca. 3 weeks vs untreated controls. The format is in vivo, Matricaria inodora.
Source text: as §3

For series [12], the system named is Schadpflanzen. Nature of the series: Herbicidal action post-emergence, summary over the weed spectrum. The format is in vivo. The note with it: Nachauflaufverfahren, Aufwandmenge von 1.28 kg und weniger Aktivsubstanz pro Hektar.
Source text: as §3

For series [13], the system named is VIOTR. Nature of the series: Herbicidal action pre-emergence (greenhouse pot test, visual rating). It counts as in vivo, Viola tricolor. The note with it: Vorauflauf, 1280 g/ha, visual rating after 3 weeks vs untreated controls.
Source text: as §1, §2

In the next series the test system is SETVI. The series is described as above. The note with it: Vorauflauf, 1280 g/ha, visual rating after 3 weeks vs untreated controls. The format is in vivo, Setaria viridis.
Source text: as §1, §2

The next series has as its system AVEFA. The series is described as above. The format is in vivo, Avena fatua. The note with it: Vorauflauf, 1280 g/ha, visual rating after 3 weeks vs untreated controls.
Source text: as §1, §2

For the next series, the system named is POLCO. Described as above. Conditions: Vorauflauf, 1280 g/ha, visual rating after 3 weeks vs untreated controls. It counts as in vivo, Polygonum convolvolus.
Source text: as §1, §2

For series [14], the system named is Schadpflanzen. Description: Herbicidal action pre-emergence, summary over the weed spectrum. It counts as in vivo. Conditions: Vorauflaufverfahren, Aufwandmenge von 1.28 kg und weniger Aktivsubstanz pro Hektar.
Source text: as §1, §2

In another series the test system is LOLMU. Nature of the series: Herbicidal action pre-emergence (greenhouse pot test, visual rating). The format is in vivo, Lolium multiflorum. The note with it: Vorauflauf, 1280 g/ha, visual rating after 3 weeks vs untreated controls.
Source text: as §1, §2

Another series deals with ECHCG. The description is as above. The format is in vivo, Echinochloa crus-galli. The note with it: Vorauflauf, 1280 g/ha, visual rating after 3 weeks vs untreated controls.
Source text: as §1, §2

The term logP denotes a log measure of how a compound divides between an organic and an aqueous phase. The low end stands for a more hydrophilic compound, the high end for a more lipophilic compound. `Cc1cc(OC(C)C)c(C(=O)NC(c2ccc(F)c(F)c2)c2ccon2)c(Cl)n1` (racemic) [Beispiel 174, 2-Chlor-N-[(3,4-difluorphenyl)(isoxazol-3-yl)methyl]-4-isopropoxy-6-methylnicotinamid]: the “herbizide Wirkung ALOMY” value in the series with ALOMY came to 60%. Moreover, the “herbizide Wirkung PHBPU” value with PHBPU turned out to be 80%. The “herbizide Wirkung ABUTH” value in the series with ABUTH [1] and in the series with ABUTH [6] was 100% in each case. The “herbizide Wirkung MATIN” value is given as 80% in the series with MATIN [2] and 90% in the series on MATIN [11]. For the same compound, the “herbizide Wirkung STEME” value in the series with STEME [3] and in the series on STEME [10] was 100% throughout. Also, the “herbizide Wirkung AMARE” value with AMARE [4] and in the series with AMARE [9] was 100% each time. In the series on VIOTR [5], the “herbizide Wirkung VIOTR” value is 80%. The “herbizide Wirkung VERPE” value in the series on VERPE [7] and in the series on VERPE [8] was 100% throughout. In the series “Log P”, this compound came in with a logP of 2.26.
On to `CCCOc1cc(C)nc(Cl)c1C(=O)NC(c1ccon1)c1ccc(OC)cc1F` (centres unmarked) [Beispiel 2, 2-Chlor-N-[(2-fluor-4-methoxyphenyl)(isoxazol-3-yl)methyl]-6-methyl-4-n-propoxynicotinamid], for which the “herbizide Wirkung gegen Schadpflanzen” value in the series on Schadpflanzen [12] was “sehr gute herbizide Wirkung”.
As for `CCCOc1cc(C)nc(Br)c1C(=O)NC(c1ccc(F)c(F)c1)c1ccon1` (centres unmarked) [Beispiel 161], the “herbizide Wirkung ALOMY” value in the series on ALOMY was found to be 90%. In addition, in the series with VIOTR [13], the “herbizide Wirkung VIOTR” value was determined as 100%. For the same compound, the “herbizide Wirkung SETVI” value in the series with SETVI is 100%. Further, the “herbizide Wirkung ABUTH” value in the series on ABUTH [1] amounted to 100%. The “herbizide Wirkung MATIN” value with MATIN [2] was found to be 100%. Also, the “herbizide Wirkung VERPE” value with VERPE [8] worked out at 100%. Further, the “herbizide Wirkung AMARE” value with AMARE [9] amounted to 100%. Also, the “herbizide Wirkung AVEFA” value in the series with AVEFA stood at 80%. Besides, in the series on POLCO, the “herbizide Wirkung POLCO” value amounted to 100%. Further, the “herbizide Wirkung gegen Schadpflanzen” value in the series on Schadpflanzen [14] is recorded as “sehr gute herbizide Wirkung”. Also, in the series on STEME [10], the “herbizide Wirkung STEME” value came out at 100%. Besides, in the series on LOLMU, the “herbizide Wirkung LOLMU” value is reported as 90%. For the same compound, in the series with ECHCG, the “herbizide Wirkung ECHCG” value turned out to be 80%.
For `CCCOc1cc(C)nc(Br)c1C(=O)NC(c1cccc(Cl)c1)c1ccon1` (centres unmarked) [Beispiel 162], in the series on ALOMY, the “herbizide Wirkung ALOMY” value was determined as 90%. In addition, the “herbizide Wirkung gegen Schadpflanzen” value in the series on Schadpflanzen [12] and in the series on Schadpflanzen [14] was “sehr gute herbizide Wirkung” each time. In the series with VIOTR [13], the “herbizide Wirkung VIOTR” value came to 100%. Besides, in the series on SETVI, the “herbizide Wirkung SETVI” value was 80%. Besides, the “herbizide Wirkung ABUTH” value with ABUTH [1] worked out at 100%. Further, the “herbizide Wirkung MATIN” value in the series with MATIN [2] is given as 100%. The “herbizide Wirkung VERPE” value with VERPE [8] amounted to 100%. For the same compound, the “herbizide Wirkung AMARE” value with AMARE [9] was 100%. Besides, the “herbizide Wirkung POLCO” value in the series on POLCO was 100%. Also, the “herbizide Wirkung STEME” value in the series on STEME [10] is reported as 100%. For the same compound, the “herbizide Wirkung LOLMU” value with LOLMU came out at 80%. The “herbizide Wirkung ECHCG” value in the series with ECHCG is listed as 80%.
As to `COc1ccc(C(NC(=O)c2c(C)nn(C)c2Cl)c2ccon2)c(F)c1` (centres unmarked) [Beispiel 261], in the series with SETVI, the “herbizide Wirkung SETVI” value is 90%. The “herbizide Wirkung PHBPU” value in the series with PHBPU was found to be 80%. Further, the “herbizide Wirkung MATIN” value in the series on MATIN [2] and in the series on MATIN [11] was 100% in each case. Further, the “herbizide Wirkung STEME” value in the series on STEME [3] and in the series on STEME [10] was 100% throughout. Besides, the “herbizide Wirkung AMARE” value worked out at 90% in the series on AMARE [4] and 100% in the series on AMARE [9]. In addition, in the series on VIOTR [5], the “herbizide Wirkung VIOTR” value turned out to be 100%. Further, the “herbizide Wirkung ABUTH” value in the series with ABUTH [6] is 80%. Besides, the “herbizide Wirkung VERPE” value in the series with VERPE [7] and with VERPE [8] was 100% throughout.
